Assay results from patent US5130117A, “Radiohalogenated benzazepine derivatives and method of imaging dopamine receptors therewith” (Trustees of the University of Pennsylvania, priority 1991, dated 1992).
Entries after “also recorded” stand apart in the source; their conditions may differ. Where a name gives a salt, the structure may show the parent alone. Read-outs that look alike come from different tables or passages of the source.

How the values were obtained:
D-1 receptors = assay: Activity of optically resolved isomers of FISCH; details: optical resolution of FISCH isomers
Excerpt: The compounds of this invention can exist as either R- or S- isomers. It is important to note that the aforementioned data were obtained using a racemic mixture of FISCH.

[1] = target: T1, dopamine D-1 receptor (rat striatal membranes) (Rattus norvegicus, UniProt P18901); assay: Competition: inhibition of [^125 I]TISCH binding to rat striatal membranes; details: for Ki: [^125 I]TISCH, rat striatal membranes, read-out: ki (mean + SEM)
T1 construct: Striatal tissues were excised, pooled and homogenized; from tissue; host or cells: striatum of male Sprague-Dawley rats
Description: (§1) Male Sprague-Dawley rats (200-250g) were decapitated, and the brains were removed and placed in ice. Striatal tissues were excised, pooled and homogenized in 100 volumes(w/v) of ice-cold Tris-HCl buffer (50 mM), pH 7.4. The homogenates were centrifuged at 20,000×g for 20 min. The resultant pellets were rehomogenized in the same buffer and centrifuged again. The final pellets were resuspended in assay buffer containing: 50 mM Tris buffer pH 7.4, 120 mM NaCl, 5 mM KCl, 2mM CaCl2 and 1 mM MgCl2.
(§2) The binding assays were performed by incubating 50 μl of tissue preparations containing 40-60μg of protein with appropriate amounts of [^125 l]FISCH ligand and competitors in a total volume of 0.2 ml of the assay buffer. After an incubation period of 20 min at 37° C. (with stirring), the samples were rapidly filtered in the cell harvester (Brandel M-24R) under vacuum through Whatman GF/B glass fiber filters pretreated with 0.2% protamine sulfate and washed with 3×5ml of cold (4° C.) 50 mM Tris-HCl buffer, pH 7.4. […] The filters were counted in a gamma counter (Beckman 5500) at an efficiency of 70%.
(§3) Both Scatchard and competition experiments were analyzed using the iterative non-linear least squares curve-fitting program LIGAND.

[2] = target: T2, dopamine D-1 receptor (rat striatal homogenate) (Rattus norvegicus, UniProt P18901); assay: Saturation binding of radioiodinated ligand to rat striatal homogenate; details: for affinity to rat striatal homogenate / Kd compared with [^125 I]IBZP (R-(+), active form): in words; for Kd compared with [^125 I]IBZP (R-(+), active form): similar conditions; for Kd: specific binding, rat striatal homogenate, racemic mixture
T2 construct: Striatal tissues were excised, pooled and homogenized; from tissue; host or cells: striatum of male Sprague-Dawley rats
Description: as §1, §2, §3

[3] = Biodistribution in rats of [^125 I]FISCH after iv injection; type: in vivo, male Sprague Dawley rats; details: rat; for brain uptake: iv
Description: Biodistribution of [^125 l]FISCH was studied in male Sprague Dawley rats (225-300g) which were allowed free access to food and water. While under halothane anesthesia, 0.2 ml of a saline solution containing [^125 l]FISCH was injected directly into the femoral vein, and the rats were sacrificed at various time points post injection by cardiac excision under halothane anesthesia. The organs of interest were removed, weighed and radioactivity was counted using a Beckman gamma automatic counter (Model 4000). The percent dose per organ was calculated by a comparison of the tissue counts to suitably diluted aliquots of the injected material. Total activities of blood and muscle were calculated assuming that they are 7% and 40% of total body weight, respectively.

[4] = target: T1, dopamine D-1 receptor (rat striatal membranes); assay: Competition: inhibition of [^125 I]FISCH binding to rat striatal membranes; details: for Ki: 0.15-0.30 nM [^125 I]FISCH, rat striatal membranes, three to five determinations, read-out: ki (mean + SEM)
Description: indicated compounds in 7-11 concentrations and of membrane preparation
from rat striatum. Each value represenets the mean ± SEM of three to
as §1, §2, §3

D-1 dopamine receptors [5] = details: rat, in vivo; for striatum/cerebellum (ST/CB) ratio: iv
Description: Regional brain distribution in rats was obtained after an iv injection of [^125 l]FISCH. By dissecting, weighing and counting samples from different brain regions (cortex, striatum, hippocampus and cerebellum), % dose/gram of samples was calculated by comparing the sample counts with the counts of the diluted initial dose. The uptake ratio of each region was obtained by dividing % dose/gram of each region with that of the cerebellum.

[6] = target: central D-1 dopamine receptors; details: cited from earlier work; for Kd: in vitro binding, rat striatum tissue preparation
D-1 receptor = details: ^11 C label, PET, human brain; cited from earlier work
D-1 dopamine receptors [7] = details: cited from earlier work
[8] = cited from earlier work

T2 sequence (P18901 whole entry): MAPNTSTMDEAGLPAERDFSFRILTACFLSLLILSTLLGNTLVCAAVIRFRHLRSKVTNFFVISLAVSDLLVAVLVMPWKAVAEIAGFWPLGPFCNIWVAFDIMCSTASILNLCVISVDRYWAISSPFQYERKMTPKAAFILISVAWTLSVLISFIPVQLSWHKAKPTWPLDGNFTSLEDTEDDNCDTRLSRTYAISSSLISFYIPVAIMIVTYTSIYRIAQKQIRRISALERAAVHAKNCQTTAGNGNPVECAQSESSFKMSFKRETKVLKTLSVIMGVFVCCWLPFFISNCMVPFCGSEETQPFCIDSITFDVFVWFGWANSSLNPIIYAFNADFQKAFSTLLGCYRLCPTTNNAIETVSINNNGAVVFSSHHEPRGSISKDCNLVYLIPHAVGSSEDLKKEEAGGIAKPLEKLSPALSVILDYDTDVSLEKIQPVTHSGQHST
T1 sequence (P18901 whole entry): as above

With `CN1CCc2cc(Cl)c(O)cc2[C@H](c2ccc(I)cc2)C1` [S- isomer] the activity of isomer (D-1 receptors) was “inactive”.

For `CN1CCc2cc(Cl)c(O)cc2C(c2cccc(I)c2)C1` (stereo not drawn) [TISCH], the Ki [1] was 0.55 ± 0.05 nM, the “selectivity for dopamine D-1 receptor” value ([1]; in words, from Tables 2 and 3) was “high selectivity” and the “affinity to rat striatal homogenate” value [2] was “high affinity”. The “Kd compared with [^125 I]IBZP (R-(+), active form)” value [2] was “comparable” and the Kd [2] was 0.35 nM.

For `CN1CCc2cc(Cl)c(O)cc2C(c2ccc([125I])cc2)C1` (racemic) [FISCH, (±)-8-chloro-2,3,4,5-tetrahydro-3-methyl-5-(4'-[^125 I]iodophenyl) -1H-3-benzazepine-7-ol], the lung clearance ([3]; fifteen and sixty minutes) was “rapid clearance”, the “brain uptake / blood-brain barrier passage” value ([3]; in words) was “good brain uptake in rats; also recorded: passes through the blood-brain barrier with ease” and the “in vivo stability (deiodination) compared with [^125 I]IBZP” value ([3]; in words) was “better in vivo stability”. For the same compound, the lung uptake ([3]; initial) was “High initial uptake”, the brain uptake ([3]; one hour after injection) was 0.55 % dose/organ and the brain uptake ([3]; two minutes after injection) was 2.27 % dose/organ. For the same compound, the “brain retention compared with [^125 I]IBZP” value ([3]; one hour post injection) was “much better”, the thyroid uptake ([3]; one hour post injection) was 0.04% and the liver uptake ([3]; throughout the first hour) was “remains high throughout the first hour”. The “selectivity for dopamine D-1 receptor” value ([4]; in words, from Tables 2 and 3) was “high selectivity”, the “ST/CB ratio, change with time” value (D-1 dopamine receptors [5]) was “dramatic increase with time” and the “striatum/cerebellum (ST/CB) ratio” value (D-1 dopamine receptors [5]; 2 min) was 1.24. For the same compound, the “striatum/cerebellum (ST/CB) ratio” value (D-1 dopamine receptors [5]; 15 min) was 1.80, the “striatum/cerebellum (ST/CB) ratio” value (D-1 dopamine receptors [5]; 60 min) was 2.47 and the nonspecific binding ([2]; at Kd, rat striatum, FIG. 2) was “approximately 15%”. For the same compound, the “affinity to rat striatal homogenate” value [2] was “high affinity” and the “Kd compared with [^125 I]IBZP (R-(+), active form)” value [2] was “comparable”.

In the case of `CN1CCc2cc(Cl)c(O)cc2[C@@H](c2ccccc2)C1` [SCH-23390, R-(+)-8-chloro-2,3,4,5-tetrahydro-3-methyl5-phenyl-1H-3-benzazepine-7-ol], the Kd [6] is given as 0.36 nM and the regional brain concentration (D-1 receptor) is given as “highest concentration in the basal ganglia area”.

Compound `CN1CCc2cc(Cl)c(O)cc2C(c2ccc(I)cc2)C1` (racemic) [FISCH, (±)-8-chloro-2,3,4,5-tetrahydro-3-methyl-5-(4'-[^125 I]iodophenyl) -1H-3-benzazepine-7-ol] has a Ki [4] of 1.71 ± 0.17 nM, a Ki [1] of 2.07 ± 0.35 nM and a Kd [2] of 1.43 nM.

For `CN1CCc2ccc(O)cc2[C@@H](c2ccccc2)C1` [SKF-83692], the Kd [6] is listed as 197 nM.

In the case of `CN1CCc2cc(I)c(O)cc2[C@@H](c2ccccc2)C1` [IBZP], the “blockade of specific uptake regions by pretreatment with SCH-23390” value (D-1 dopamine receptors [7]; in vivo autoradiography) is given as “can be blocked by pretreatment with SCH-23390”, the “regional distribution in rat brain (caudate putamen, accumbens nucleus and substantia nigra)” value (D-1 dopamine receptors [7]; in vivo autoradiography) is given as “high uptake” and the “uptake ratio of striatum/cerebellum” value (D-1 dopamine receptors [7]; rat, thirty seconds after injection) is given as 1.1. For the same compound, the “uptake ratio of striatum/cerebellum” value (D-1 dopamine receptors [7]; rat, two hours after injection) was 5.3, the “striatum/cerebellum uptake ratio, change with time” value (D-1 dopamine receptors [7]; rat) was “increased with time” and the “in vivo and in vitro stability” value ([8]; in words, deiodination) was “poor in vivo and in vitro stability”. For the same compound, the “retention time in the brain” value ([8]; in words) was “short retention time in the brain”, the brain uptake ([8]; rat, iv, 2 minutes post injection) was 2.7 %dose/organ and the brain uptake ([8]; rat, iv, 15 minutes post injection) was 1.2 %dose/organ. For the same compound, the brain uptake ([8]; rat, iv, 30 minutes post injection) was 0.8 %dose/organ, the brain uptake ([8]; rat, iv, 60 minutes (one hour) post injection) was 0.26 %dose/organ and the brain localization ([8]; rat, iv) was “good localization in rat brains”. The thyroid uptake ([8]; rat, later time points) was “high at later time points”, the thyroid uptake ([8]; rat, one hour post injection) was 0.1% and the Kd [6] was 0.7 nM. For the same compound, the “selectivity/specificity for central D-1 dopamine receptors” value ([6]; in words) was “high specificity for central D-1 dopamine receptors”.

With `COc1cccc(OC)c1OCCNCC1COc2ccccc2O1` (stereo not drawn) [WB 4101, 2(2,6-dimethoxyphenoxyethyl)-aminomethyl-1,4-benzodioxane hydrochloride, reference compound] the Ki [4] was 1270 ± 203 nM.

For `CN1CCc2cc(Cl)c(O)cc2[C@@H](c2ccc(I)cc2)C1` [R+ isomer], the activity of isomer (D-1 receptors) was “active”.

With `CN1CCc2cc(I)c(O)cc2C(c2ccccc2)C1` (racemic) [(±) IBZP, reference compound] the Ki [4] was 13.4 ± 0.54 nM.
